Source: PubChem BioAssay AID328 (DTP/NCI, 2004)
“And” between values parts separate entries of the source, which are not always exact repeats. Equal values may be shown once. Toxic doses and inconclusive results are not listed.

System: BDF1 mice, P388 leukemia ip, median survival T/C
Test: NCI In Vivo Anticancer Drug Screen. Data for tumor model P388 Leukemia (intraperitoneal) in B6D2F1 (BDF1) mice
Conditions: endpoint: median survival time, higher = longer survival
How it was run: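 Transplantable tumour in mice; compound vs vehicle dosing; survival scored; ratio of treated to control reported.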

COC1C(O)CC(OC2CC(Oc3cc4cc5c(c(O)c4c(O)c3C)C(=O)[C@@H](OC3CC(OC4CC(OC6CC(C)(O)C(OC(C)=O)C(C)O6)C(O)C(C)O4)C(O)C(C)O3)[C@H]([C@H](OC)C(=O)[C@@H](O)[C@@H](C)O)C5)OC(C)C2OC(C)=O)OC1C (stereo not given in full)
T/C (dose: 0.02 mg/kg/injection, schedule: Q01DX005 (ip), vehicle: saline): 166 % of control
T/C (dose: 0.03 mg/kg/injection, schedule: Q01DX001 (ip), vehicle: saline): 109 % of control
T/C (dose: 0.03 mg/kg/injection, schedule: Q01DX005 (ip), vehicle: saline): 168 % of control
T/C (dose: 0.03 mg/kg/injection, schedule: Q01DX009 (ip), vehicle: saline): 150 % of control
T/C (dose: 0.05 mg/kg/injection, schedule: Q01DX005 (ip), vehicle: clinical formulation): 183 % of control
T/C (dose: 0.05 mg/kg/injection, schedule: Q01DX005 (ip), vehicle: saline): 166 % of control and 183 % of control and 187 % of control
T/C (dose: 0.06 mg/kg/injection, schedule: Q01DX005 (ip), vehicle: saline): 172 % of control
T/C (dose: 0.06 mg/kg/injection, schedule: Q01DX009 (ip), vehicle: saline): 172 % of control
T/C (dose: 0.1 mg/kg/injection, schedule: Q01DX005 (ip), vehicle: clinical formulation): 200 % of control
T/C (dose: 0.1 mg/kg/injection, schedule: Q01DX005 (ip), vehicle: saline): 187 % of control (2×) and 193 % of control
T/C (dose: 0.13 mg/kg/injection, schedule: Q01DX001 (oral), vehicle: saline): 100 % of control
T/C (dose: 0.13 mg/kg/injection, schedule: Q01DX001 (sc), vehicle: Klucel (hydroxypropylcellulose) (HPC)): 100 % of control
T/C (dose: 0.13 mg/kg/injection, schedule: Q01DX005 (ip), vehicle: saline): 177 % of control
T/C (dose: 0.13 mg/kg/injection, schedule: Q01DX009 (ip), vehicle: saline): 172 % of control
T/C (dose: 0.13 mg/kg/injection, schedule: Q01DX010 (oral), vehicle: saline): 100 % of control
T/C (dose: 0.13 mg/kg/injection, schedule: Q01DX010 (sc), vehicle: Klucel (hydroxypropylcellulose) (HPC)): 109 % of control
T/C (dose: 0.15 mg/kg/injection, schedule: Q01DX005 (ip), vehicle: clinical formulation): 225 % of control
T/C (dose: 0.15 mg/kg/injection, schedule: Q01DX005 (ip), vehicle: saline): 204 % of control
T/C (dose: 0.2 mg/kg/injection, schedule: Q01DX005 (ip), vehicle: clinical formulation): 170 % of control
T/C (dose: 0.2 mg/kg/injection, schedule: Q01DX005 (ip), vehicle: saline): 254 % of control and 260 % of control and 158 % of control
T/C (dose: 0.25 mg/kg/injection, schedule: Q01DX001 (sc), vehicle: Klucel (hydroxypropylcellulose) (HPC)): 100 % of control
T/C (dose: 0.25 mg/kg/injection, schedule: Q01DX009 (ip), vehicle: saline): 95 % of control
T/C (dose: 0.25 mg/kg/injection, schedule: Q01DX010 (sc), vehicle: Klucel (hydroxypropylcellulose) (HPC)): 95 % of control
T/C (dose: 0.25 mg/kg/injection, schedule: Q04DX003 (ip), vehicle: saline): 200 % of control
T/C (dose: 0.4 mg/kg/injection, schedule: Q01DX001 (ip), vehicle: saline): 150 % of control
T/C (dose: 0.5 mg/kg/injection, schedule: Q01DX001 (ip), vehicle: other): 175 % of control
T/C (dose: 0.5 mg/kg/injection, schedule: Q01DX001 (oral), vehicle: saline): 95 % of control
T/C (dose: 0.5 mg/kg/injection, schedule: Q01DX001 (sc), vehicle: Klucel (hydroxypropylcellulose) (HPC)): 109 % of control
T/C (dose: 0.5 mg/kg/injection, schedule: Q01DX010 (oral), vehicle: saline): 109 % of control
T/C (dose: 0.5 mg/kg/injection, schedule: Q04DX003 (ip), vehicle: saline): 100 % of control
T/C (dose: 0.8 mg/kg/injection, schedule: Q01DX001 (ip), vehicle: saline): 170 % of control
T/C (dose: 1.0 mg/kg/injection, schedule: Q01DX010 (oral), vehicle: saline): 100 % of control
T/C (dose: 1.6 mg/kg/injection, schedule: Q01DX001 (ip), vehicle: saline): 162 % of control
T/C (dose: 2.0 mg/kg/injection, schedule: Q01DX001 (oral), vehicle: saline): 109 % of control
T/C (dose: 2.0 mg/kg/injection, schedule: Q01DX010 (oral), vehicle: saline): 100 % of control
T/C (dose: 0.9 micrograms/kg/injection, schedule: Q01DX010 (ip), vehicle: saline): 90 % of control
T/C (dose: 1.9 micrograms/kg/injection, schedule: Q01DX010 (ip), vehicle: saline): 86 % of control
T/C (dose: 3.8 micrograms/kg/injection, schedule: Q01DX010 (ip), vehicle: saline): 100 % of control
T/C (dose: 3.8 micrograms/kg/injection, schedule: Q03HX024 (ip), vehicle: saline): 177 % of control
T/C (dose: 8.0 micrograms/kg/injection, schedule: Q01DX010 (ip), vehicle: saline): 150 % of control
T/C (dose: 16.0 micrograms/kg/injection, schedule: Q01DX010 (ip), vehicle: saline): 160 % of control
T/C (dose: 32.0 micrograms/kg/injection, schedule: Q01DX010 (ip), vehicle: saline): 180 % of control and 195 % of control
T/C (dose: 60.0 micrograms/kg/injection, schedule: Q01DX010 (ip), vehicle: saline): 154 % of control
T/C (dose: 62.0 micrograms/kg/injection, schedule: Q01DX009 (ip), vehicle: other): 150 % of control
T/C (dose: 63.0 micrograms/kg/injection, schedule: Q01DX010 (ip), vehicle: saline): 163 % of control and 185 % of control and 210 % of control
T/C (dose: 125.0 micrograms/kg/injection, schedule: Q01DX001 (ip), vehicle: clinical formulation): 154 % of control and 168 % of control and 181 % of control
T/C (dose: 125.0 micrograms/kg/injection, schedule: Q01DX001 (ip), vehicle: water): 213 % of control
T/C (dose: 125.0 micrograms/kg/injection, schedule: Q01DX009 (ip), vehicle: other): 166 % of control
T/C (dose: 125.0 micrograms/kg/injection, schedule: Q01DX010 (ip), vehicle: saline): 300 % of control and 209 % of control
T/C (dose: 200.0 micrograms/kg/injection, schedule: Q01DX009 (ip), vehicle: saline): 100 % of control
T/C (dose: 250.0 micrograms/kg/injection, schedule: Q01DX001 (ip), vehicle: clinical formulation): 186 % of control and 195 % of control and 200 % of control
T/C (dose: 250.0 micrograms/kg/injection, schedule: Q01DX001 (ip), vehicle: water): 250 % of control
T/C (dose: 500.0 micrograms/kg/injection, schedule: Q01DX001 (ip), vehicle: clinical formulation): 236 % of control and 190 % of control and 213 % of control
T/C (dose: 1000.0 micrograms/kg/injection, schedule: Q01DX001 (ip), vehicle: clinical formulation): 231 % of control
T/C (dose: 2000.0 micrograms/kg/injection, schedule: Q01DX001 (ip), vehicle: clinical formulation): 100 % of control
